According to patent US9023821B2, “Use of MicroRNA for treating diseases associated with a dysfunction of the cilia in multiciliated epithelial cells” (Centre National de la Recherche Scientifique, priority 2009, dated 2015):

Tests used:
[1] = system: basal cells and pyramidal cells of the airway epithelium; assay: miRNA expression in sorted basal cells versus pyramidal cells (ciliated + secretory), HTS and Agilent chips; design: species or system human; details: for Modulation of expression of the miRNAs in pyramidal cells (323(−)) relative to basal cells 323(+): HTS and Agilent chips; for Intensity of the level of expression in log2 in pyramidal cells (323(−)): pyramidal cells (ciliated + secretory)
How it was run: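 Nasal polyp or concha epithelial cells from 3 donors FACS-sorted into CD151+/tissue factor+ basal cells and CD151−/TF− pyramidal (ciliated plus mucus-secreting) cells, excluding dead (DAPI) cells and doublets. miRNA profiles from total RNA obtained by Agilent chips or high-throughput sequencing.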

[2] = system: human airway epithelial cells (HAECs); assay: Agilent miRNA chips, miRNA expression at four stages of differentiation of HAECs; details: for Modulation (ratio of the level of intensity of expression in log2 in two stages of differentiation) measured with the Agilent chips, D7 − D0 / Modulation (ratio of the level of intensity of expression in log2 in two stages of differentiation) measured with the Agilent chips, FC − D7 / Modulation (ratio of the level of intensity of expression in log2 in two stages of differentiation) measured with the Agilent chips, WD − D0 / Modulation (ratio of the level of intensity of expression in log2 in two stages of differentiation) measured with the Agilent chips, WD − FC / Level of intensity of expression in log2 measured with the Agilent chips, D0 / Level of intensity of expression in log2 measured with the Agilent chips, D7 / Level of intensity of expression in log2 measured with the Agilent chips, FC / Level of intensity of expression in log2 measured with the Agilent chips, WD: Table VI; for Modulation (ratio of the level of intensity of expression in log2 at two stages of differentiation), FC − D7 / Modulation (ratio of the level of intensity of expression in log2 at two stages of differentiation), WD − FC: Agilent miRNA chips, Table V; for Level of intensity of expression in log2 measured with the Agilent chips, D0: stage D0; for Level of intensity of expression in log2 measured with the Agilent chips, D7: stage D7; for Level of intensity of expression in log2 measured with the Agilent chips, FC: stage FC; for Level of intensity of expression in log2 measured with the Agilent chips, WD: stage WD
How it was run: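 RNA from the same patients' HAECs at four differentiation stages was labelled and hybridized with the Agilent miRNA labeling and hybridization kit. Chips were Human miRNA Microarray v2, with 866 human and 89 viral miRNAs (miRBase v12.0). Profiles were compared with high-throughput sequencing data.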

[3] = system: human airway epithelial cells (HAECs); assay: High-throughput sequencing (HTS) of miRNAs at four stages of differentiation of HAECs; details: for Modulation (ratio of the level of intensity of expression in log2 in two stages of differentiation) measured by high-throughput sequencing, D7 − D0 / Modulation (ratio of the level of intensity of expression in log2 in two stages of differentiation) measured by high-throughput sequencing, FC − D7 / Modulation (ratio of the level of intensity of expression in log2 in two stages of differentiation) measured by high-throughput sequencing, WD − D0 / Modulation (ratio of the level of intensity of expression in log2 in two stages of differentiation) measured by high-throughput sequencing, WD − FC / Level of intensity of expression in log2 measured by high-throughput sequencing, D0 / Level of intensity of expression in log2 measured by high-throughput sequencing, D7 / Level of intensity of expression in log2 measured by high-throughput sequencing, FC / Level of intensity of expression in log2 measured by high-throughput sequencing, WD: Table VI; for Modulation (ratio of the level of intensity of expression in log2 in two stages of differentiation), D7 − D0 / Modulation (ratio of the level of intensity of expression in log2 in two stages of differentiation), FC − D7 / Modulation (ratio of the level of intensity of expression in log2 in two stages of differentiation), WD − FC / Abundance (%), D0 / Abundance (%), D7 / Abundance (%), FC / Abundance (%), WD: HTS; for Abundance (%), D0: ALI-D0; for Abundance (%), D7: ALI-D7; for Abundance (%), FC: ALI-FC; for Abundance (%), WD: ALI-WD; for Level of intensity of expression in log2 At the differentiated stage (WD) measured in HTS: healthy human airway epithelial tissue; for Level of intensity of expression in log2 measured by high-throughput sequencing, D0: stage D0; for Level of intensity of expression in log2 measured by high-throughput sequencing, D7: stage D7; for Level of intensity of expression in log2 measured by high-throughput sequencing, FC: stage FC; for Level of intensity of expression in log2 At the differentiated stage (WD) measured in HTS / Level of intensity of expression in log2 measured by high-throughput sequencing, WD: stage WD
How it was run: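 Total RNA (with small RNAs) from air-liquid-interface HAECs at ALI-D0, D7, first cilia (~14 d) and fully differentiated (~21 d); adaptor-ligated SOLiD small-RNA libraries, RT-PCR, gel-selected ~105-150 bases. Counts normalized to 10^6 sequences as % abundance; linear-model/empirical Bayes; kept >1% abundance, |Log2 Ratio| <0.5, adjusted P <0.05.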

Row | Substance | Modulation of expression of the miRNAs in pyramidal cells (323(−)) relative to basal cells 323(+) [1] | Intensity of the level of expression in log2 in basal cells (323(+)) [1] | Intensity of the level of expression in log2 in pyramidal cells (323(−)) [1] | Modulation (ratio of the level of intensity of expression in log2 in two stages of differentiation) measured with the Agilent chips, D7 − D0 [2] | Modulation (ratio of the level of intensity of expression in log2 in two stages of differentiation) measured with the Agilent chips, FC − D7 [2] | Modulation (ratio of the level of intensity of expression in log2 in two stages of differentiation) measured with the Agilent chips, WD − D0 [2] | Modulation (ratio of the level of intensity of expression in log2 in two stages of differentiation) measured with the Agilent chips, WD − FC [2] | Level of intensity of expression in log2 measured with the Agilent chips, D0 [2] | Level of intensity of expression in log2 measured with the Agilent chips, D7 [2] | Level of intensity of expression in log2 measured with the Agilent chips, FC [2] | Level of intensity of expression in log2 measured with the Agilent chips, WD [2] | Modulation (ratio of the level of intensity of expression in log2 in two stages of differentiation) measured by high-throughput sequencing, D7 − D0 [3] | Modulation (ratio of the level of intensity of expression in log2 in two stages of differentiation) measured by high-throughput sequencing, FC − D7 [3] | Modulation (ratio of the level of intensity of expression in log2 in two stages of differentiation) measured by high-throughput sequencing, WD − D0 [3] | Modulation (ratio of the level of intensity of expression in log2 in two stages of differentiation) measured by high-throughput sequencing, WD − FC [3] | Level of intensity of expression in log2 At the differentiated stage (WD) measured in HTS [3] | Level of intensity of expression in log2 measured by high-throughput sequencing, D0 [3] | Level of intensity of expression in log2 measured by high-throughput sequencing, D7 [3] | Level of intensity of expression in log2 measured by high-throughput sequencing, FC [3] | Level of intensity of expression in log2 measured by high-throughput sequencing, WD [3] | also measured
1 | hsa-miR-130a: human miRNA, SEQ ID No. 4 (CAGUGCAAUGUUAAAAGGGCAU; expressed or natural sequence; listed as Homo sapiens) | −6.33 | 9.76 log2 | 3.43 log2 | 0.65 log2 | −1.53 log2 | −1.31 log2 | −0.43 log2 | 8.83 log2 | 9.48 log2 | 7.95 log2 | 7.52 log2 | −1.40 log2 | 0.19 log2 | −1.94 log2 | −0.73 log2 | 11.98 log2 | 13.91 log2 | 12.51 log2 | 12.71 log2 | 11.98 log2 | cell type in which the miRNA is specifically expressed ([1]; sorted ciliated/pyramidal versus basal cells): more specific to the basal cells; Modulation (ratio of the level of intensity of expression in log2 at two stages of differentiation), FC − D7 [2]: −1.53 log2; Modulation (ratio of the level of intensity of expression in log2 at two stages of differentiation), WD − FC [2]: −0.43 log2; Modulation (ratio of the level of intensity of expression in log2 in two stages of differentiation), D7 − D0 [3]: −1.40 log2; Modulation (ratio of the level of intensity of expression in log2 in two stages of differentiation), FC − D7 [3]: 0.19 log2; Modulation (ratio of the level of intensity of expression in log2 in two stages of differentiation), WD − FC [3]: −0.73 log2; Abundance (%), D0 [3]: 3.38%; Abundance (%), D7 [3]: 1.28%; Abundance (%), FC [3]: 1.42%; Abundance (%), WD [3]: 0.65%
2 | hsa-miR-140-3p: human miRNA, SEQ ID No. 5 (UACCACAGGGUAGAACCACGG; expressed or natural sequence; listed as Homo sapiens) | 0.91 | 2.75 log2 | 3.66 log2 | 1.54 log2 | −0.08 log2 | 1.52 log2 | 0.06 log2 | 3.55 log2 | 5.09 log2 | 5.01 log2 | 5.07 log2 | 0.33 log2 | 0.37 log2 | 0.73 log2 | 0.04 log2 | 13.12 log2 | 12.39 log2 | 12.72 log2 | 13.08 log2 | 13.12 log2 | Modulation (ratio of the level of intensity of expression in log2 in two stages of differentiation), D7 − D0 [3]: 0.33 log2; Modulation (ratio of the level of intensity of expression in log2 in two stages of differentiation), FC − D7 [3]: 0.37 log2; Modulation (ratio of the level of intensity of expression in log2 in two stages of differentiation), WD − FC [3]: 0.04 log2; Abundance (%), D0 [3]: 1.17%; Abundance (%), D7 [3]: 1.48%; Abundance (%), FC [3]: 1.85%; Abundance (%), WD [3]: 1.44%
3 | hsa-miR-141: human miRNA, SEQ ID No. 6 (UAACACUGUCUGGUAAAGAUGG; expressed or natural sequence; listed as Homo sapiens) | −2.88 | 11.12 log2 | 8.24 log2 | 2.16 log2 | −0.28 log2 | 1.88 log2 | 0.00 log2 | 11.15 log2 | 13.31 log2 | 13.03 log2 | 13.03 log2 | 1.17 log2 | 0.37 log2 | 1.70 log2 | 0.17 log2 | 9.75 log2 | 8.05 log2 | 9.22 log2 | 9.58 log2 | 9.75 log2 | Modulation (ratio of the level of intensity of expression in log2 at two stages of differentiation), FC − D7 [2]: −0.28 log2; Modulation (ratio of the level of intensity of expression in log2 at two stages of differentiation), WD − FC [2]: 0.00 log2
4 | hsa-miR-148a: human miRNA, SEQ ID No. 7 (UCAGUGCACUACAGAACUUUGU; expressed or natural sequence; listed as Homo sapiens) | −1.76 | 7.14 log2 | 5.39 log2 | 2.06 log2 | −0.50 log2 | 1.60 log2 | 0.04 log2 | 7.35 log2 | 9.41 log2 | 8.91 log2 | 8.95 log2 | 1.31 log2 | −0.28 log2 | 1.93 log2 | 0.91 log2 | 8.97 log2 | 7.04 log2 | 8.34 log2 | 8.06 log2 | 8.97 log2 | Modulation (ratio of the level of intensity of expression in log2 at two stages of differentiation), FC − D7 [2]: −0.50 log2; Modulation (ratio of the level of intensity of expression in log2 at two stages of differentiation), WD − FC [2]: 0.04 log2
